In paper PMC4965013, “Open Source Drug Discovery with the Malaria Box Compound Collection for Neglected Diseases and Beyond” (PLoS Pathogens, 2016):
Where “and” joins values, the source holds several entries; their conditions need not be identical. Equal entries are not always repeated. Blank lines part the entries; values can stand above or below the compound they belong to.

What was measured:
[1] = tested on: bovine Babesia and equine Babesia and Theileria parasites; test: Babesia and Theileria fluorescence-based assay, all four species; type: cell-based, B. bovis, B. bigemina, T. equi, B. caballi; conditions: for IC50: Babesia, range over compounds and species, read-out: IC50s for both bovine Babesia and equine Babesia and Theileria parasites
[2] = tested on: P. falciparum 3D7 trophozoites; test: Metabolomic fingerprint profiling LC-MS; type: cell-based, Plasmodium falciparum; set-up: UDP-D-glucose / ADP-D-glucose: unit not given here; conditions: for Acetyllysine / N-acetyl-L-ornithine / N-carbamoyl-L-aspartate / NADPH / dAMP / dCMP / dTDP / dTMP / dTTP / dihydroorotate / orotate / DLH / DLS/SDL/SID / PD / PEE / PVNF / 3-phosphoglycerate / ADP-D-glucose / ATP / CDP / D-sedoheptulose-1/7-phosphate / FAD / GMP / NAD+ / NADP+ / Octoluse Bisphosphate / Pyroglutamic acid / UDP-D-glucose / UDP-D-glucuronate / UDP-N-acetyl-glucosamine / UDP / UMP / UTP / a-ketoglutarate / citrate/isocitrate / cytidine / dATP / dGMP/AMP / fumarate / glucose-1/6-phosphate / glycerate / guanine / guanosine / hypoxanthine / indole / inosine / nicotinate / ornithine / phosphoenolpyruvate / pyruvate / ribose-phosphate / sarcosine/alanine / sn-glycerol-3-phosphate / succinate/methylmalonic acid / uridine / xanthosine: S2 Table Metabolomics; for Acetyllysine: metabolite Acetyllysine; for N-acetyl-L-ornithine: metabolite N-acetyl-L-ornithine; for N-carbamoyl-L-aspartate: metabolite N-carbamoyl-L-aspartate; for NADPH: metabolite NADPH; for dAMP: metabolite dAMP; for dCMP: metabolite dCMP; for dTDP: metabolite dTDP; for dTMP: metabolite dTMP; for dTTP: metabolite dTTP; for dihydroorotate: metabolite dihydroorotate; for orotate: metabolite orotate; for DLH: peptide DLH; for DLS/SDL/SID: peptide DLS/SDL/SID; for PD: peptide PD; for PEE: peptide PEE; for PVNF: peptide PVNF; for 3-phosphoglycerate: metabolite 3-phosphoglycerate; for ADP-D-glucose: metabolite ADP-D-glucose; for ATP: metabolite ATP; for CDP: metabolite CDP; for CDP / D-sedoheptulose-1/7-phosphate / GMP / Octoluse Bisphosphate / UDP / UMP / UTP / citrate/isocitrate / dGMP/AMP / fumarate / glucose-1/6-phosphate / glycerate / guanine / guanosine / inosine / pyruvate / sarcosine/alanine / succinate/methylmalonic acid / uridine / xanthosine: change in metabolite level after compound treatment; for D-sedoheptulose-1/7-phosphate: metabolite D-sedoheptulose-1/7-phosphate; for FAD: metabolite FAD; for GMP: metabolite GMP; for NAD+: metabolite NAD+; for NADP+: metabolite NADP+; for Octoluse Bisphosphate: metabolite Octoluse Bisphosphate; for Pyroglutamic acid: metabolite Pyroglutamic acid; for UDP-D-glucose: metabolite UDP-D-glucose; for UDP-D-glucuronate: metabolite UDP-D-glucuronate; for UDP-N-acetyl-glucosamine: metabolite UDP-N-acetyl-glucosamine; for UDP: metabolite UDP; for UMP: metabolite UMP; for UTP: metabolite UTP; for a-ketoglutarate: metabolite a-ketoglutarate; for citrate/isocitrate: metabolite citrate/isocitrate; for cytidine: metabolite cytidine; for dATP: metabolite dATP; for dGMP/AMP: metabolite dGMP/AMP; for fumarate: metabolite fumarate; for glucose-1/6-phosphate: metabolite glucose-1/6-phosphate; for glycerate: metabolite glycerate; for guanine: metabolite guanine; for guanosine: metabolite guanosine; for hypoxanthine: metabolite hypoxanthine; for indole: metabolite indole; for inosine: metabolite inosine; for 2_3-Diphosphoglyceric acid / 4-phosphopantothenate / 6-phospho-D-gluconate / FMN / IMP / Pyrophosphate / Sedoheptoluse bisphosphate / cyclic-AMP / glutathione disulfide / lactate / myo-inositol: metabolite level change after treatment; for nicotinate: metabolite nicotinate; for ornithine: metabolite ornithine; for phosphoenolpyruvate: metabolite phosphoenolpyruvate; for pyruvate: metabolite pyruvate; for ribose-phosphate: metabolite ribose-phosphate; for sarcosine/alanine: metabolite sarcosine/alanine; for sn-glycerol-3-phosphate: metabolite sn-glycerol-3-phosphate; for succinate/methylmalonic acid: metabolite succinate/methylmalonic acid; for uridine: metabolite uridine; for xanthosine: metabolite xanthosine
P. falciparum = test: EC50 listed in S2 Table Metabolomics (used to set the concentration tested); type: cell-based; conditions: Plasmodium falciparum; EC50 used for Factor_XEC50 in metabolomics; read-out: EC50_nM
PfPMT = PfPMT (Plasmodium falciparum, UniProt Q8IDQ9); test: PfPMT gene replacement yeast growth; conditions: 100µM
[3] = tested on: NCI60 human tumor cell lines; test: NCI60 5-dose (dose-response) assay; type: cell-based
Excerpt: Columns IE-KK. NCI: Misra group (data presented first in this paper). NCI60 anti-tumor cell activity. Methods: […] These 60 cell lines, along with others, have been developed at NCI and have been maintained and distributed for research purposes by NCI for over 25 years. The experimental readout provides both inhibition of cell growth and cell kill. The screen was originally designed to prioritize agents for further evaluation. […] This is the same as for the 5-dose assay, described on http://dtp.cancer.gov/branches/btb/ivclsp.html. […] Testing beyond the initial screen: There were 133 compounds that passed threshold to proceed to 5-dose (dose-response) (data are available for the 133 compounds at the DTP public website (dtp.cancer.gov) by searching either the MMV number or NSC number). After examination of the 5-dose data, 10 compounds were selected for repeat testing based generally on potency, differential cell activity or activity on an individual cell lines or cell line panel. A summary of the data for the 10 compounds of interest is in the table below.

[4] = mean over cell lines of one experiment, listed as 766470/2

Chain of PfPMT (Q8IDQ9 whole entry): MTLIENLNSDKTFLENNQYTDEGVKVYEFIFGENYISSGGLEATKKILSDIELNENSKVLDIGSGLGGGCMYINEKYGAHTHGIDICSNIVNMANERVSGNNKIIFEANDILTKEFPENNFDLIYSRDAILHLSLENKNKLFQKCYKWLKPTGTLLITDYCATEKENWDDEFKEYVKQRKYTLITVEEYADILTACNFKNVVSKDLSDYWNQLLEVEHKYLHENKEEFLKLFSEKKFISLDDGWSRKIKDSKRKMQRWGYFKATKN

anti-Babesia and anti-Theileria hits, IC50 in words [1]: nanomolar IC50s | IC50 [1]: 43 to 750 nM
Compound: Cn1c(=O)n(C)c2cc(CNCCNc3ccnc4cc(Cl)ccc34)ccc21 [MMV665875]
mean selectivity indices (SI) [1]: greater than 230

anti-Babesia and anti-Theileria hits, IC50 in words [1]: nanomolar IC50s | IC50 [1]: 43 to 750 nM
Compound: Cc1cc(N2CCN(C3CCCC3)CC2)n2c(nc3ccccc32)c1C#N [MMV006706]
mean selectivity indices (SI) [1]: greater than 230

anti-Babesia and anti-Theileria hits, IC50 in words [1]: nanomolar IC50s | IC50 [1]: 43 to 750 nM
Compound: CN(C)c1ccc(N=Cc2ccc(N3CCOCC3)cc2)cc1 [MMV073843]
mean selectivity indices (SI) [1]: greater than 230

anti-Babesia and anti-Theileria hits, IC50 in words [1]: nanomolar IC50s | IC50 [1]: 43 to 750 nM
Compound: CCCC(c1nnnn1C1CCCCC1)N1CCN(C(=O)c2ccco2)CC1 (centres unmarked) [MMV666093]
mean selectivity indices (SI) [1]: greater than 230

Compound: CCc1ccc(Nc2cc(C)c3ccc(O)cc3n2)cc1 [MMV000570]
Acetyllysine [2]: -3.5798 | N-acetyl-L-ornithine [2]: -2.11 | N-carbamoyl-L-aspartate [2]: -1.956 | NADPH [2]: 0.5669 | dAMP [2]: 0.09919 | dCMP [2]: -0.6377 | dTDP [2]: 0.1581 | dTMP [2]: 0.002348 | dTTP [2]: -0.746 | dihydroorotate [2]: -1.827 | orotate [2]: -1.158 | DLH [2]: -3.486 | DLS/SDL/SID [2]: -2.98 | PD [2]: -3.426 | PEE [2]: -2.976 | PVNF [2]: -3.666 | 3-phosphoglycerate [2]: -0.3004 | ADP-D-glucose [2]: -0.2531 | ATP [2]: -0.4297 | CDP [2]: 0.1199 | D-sedoheptulose-1/7-phosphate [2]: -0.03599 | FAD [2]: 0.02687 | GMP [2]: -0.7921 | NAD+ [2]: -0.005921 | NADP+ [2]: 0.04495 | Octoluse Bisphosphate [2]: -0.7521 | Pyroglutamic acid [2]: 0.02528 | UDP-D-glucose [2]: -0.0202 | UDP-D-glucuronate [2]: -0.1762 | UDP-N-acetyl-glucosamine [2]: -0.01786 | UDP [2]: 0.2064 | UMP [2]: -0.3865 | UTP [2]: -0.5565 | a-ketoglutarate [2]: -0.893 | citrate/isocitrate [2]: -0.9405 | cytidine [2]: 0.2459 | dATP [2]: 0.202 | dGMP/AMP [2]: 0.175 | fumarate [2]: -1.642 | glucose-1/6-phosphate [2]: -0.09278 | glycerate [2]: -0.2054 | guanine [2]: -0.06952 | guanosine [2]: -0.3954 | hypoxanthine [2]: 0.06102 | indole [2]: -0.08521 | inosine [2]: -0.1832 | 2_3-Diphosphoglyceric acid [2]: -0.3845 | 4-phosphopantothenate [2]: -0.2389 | 6-phospho-D-gluconate [2]: -0.3077 | FMN [2]: -0.01655 | IMP [2]: -0.277 | Pyrophosphate [2]: 0.07301 | Sedoheptoluse bisphosphate [2]: -0.5323 | cyclic-AMP [2]: -0.9231 | glutathione disulfide [2]: -0.5684 | lactate [2]: -0.3085 | myo-inositol [2]: -0.5155 | nicotinate [2]: 0.1664 | ornithine [2]: -0.4755 | phosphoenolpyruvate [2]: -0.0203 | pyruvate [2]: 0.06241 | ribose-phosphate [2]: -0.6825 | sarcosine/alanine [2]: -1.674 | sn-glycerol-3-phosphate [2]: -0.5868 | succinate/methylmalonic acid [2]: -0.5023 | uridine [2]: -0.4463 | xanthosine [2]: -1.566 | EC50 (P. falciparum): 194 nM | candidate inhibitors of PfPMT activity (yeast functional assay) (PfPMT): candidate inhibitors of PfPMT activity

anti-Babesia and anti-Theileria hits, IC50 in words [1]: nanomolar IC50s
Compound: CC(C)CCNCC(O)Cn1c2ccccc2c2ccccc21 (centres unmarked) [MMV006787]

anti-Babesia and anti-Theileria hits, IC50 in words [1]: nanomolar IC50s
Compound: CCOc1ccc(CN2CCN(CC(O)COc3ccc(OCC(O)CN4CCN(Cc5ccc(OCC)cc5)CC4)cc3)CC2)cc1 (centres unmarked) [MMV007092]

Compound: COc1ccc(-c2nc3cc(Cc4ccc5[nH]c(-c6ccc(OC)cc6)nc5c4)ccc3[nH]2)cc1 [MMV007384]
Notes (NCI60 5-dose activity pattern) [3]: Colon, differential, potent | MGLI50 = Mean Growth Log I50 ([3]; 5-dose, mean over NCI60 panel): -7.34 | _MID Log10GI50 [3, 4]: -7.42 Molar and -7.34 Molar | _MID Log10LC50 [3, 4]: -5.38 Molar and -5.32 Molar | _MID Log10TGI [3, 4]: -6.22 Molar and -6.17 Molar | Acetyllysine [2]: -1.262 | N-acetyl-L-ornithine [2]: -1.162 | N-carbamoyl-L-aspartate [2]: -0.09766 | NADPH [2]: -0.9181 | dAMP [2]: 0.6855 | dCMP [2]: 0.07883 | dTDP [2]: 0.07329 | dTMP [2]: 0.1259 | dTTP [2]: -0.4561 | dihydroorotate [2]: 0.3461 | orotate [2]: 0.3571 | DLH [2]: -1.971 | DLS/SDL/SID [2]: -1.761 | PD [2]: -1.296 | PEE [2]: -1.3661 | PVNF [2]: -1.589 | 3-phosphoglycerate [2]: -0.215 | ADP-D-glucose [2]: -0.07535 | ATP [2]: -0.4674 | CDP [2]: -0.349 | D-sedoheptulose-1/7-phosphate [2]: -0.5757 | FAD [2]: -0.3245 | GMP [2]: -0.4418 | NAD+ [2]: -0.0839 | NADP+ [2]: -0.1415 | Octoluse Bisphosphate [2]: -0.7079 | Pyroglutamic acid [2]: 1.1726 | UDP-D-glucose [2]: -0.1169 | UDP-D-glucuronate [2]: -0.3283 | UDP-N-acetyl-glucosamine [2]: -0.1799 | UDP [2]: -0.2172 | UMP [2]: -0.3886 | UTP [2]: -0.61 | a-ketoglutarate [2]: 0.7257 | citrate/isocitrate [2]: 1.281 | cytidine [2]: 0.03237 | dATP [2]: -0.2668 | dGMP/AMP [2]: 0.1319 | fumarate [2]: 0.03505 | glucose-1/6-phosphate [2]: 0.02257 | glycerate [2]: 0.3902 | guanine [2]: 0.5342 | guanosine [2]: 0.3398 | hypoxanthine [2]: 1.128 | indole [2]: 0.6274 | inosine [2]: 0.7464 | 2_3-Diphosphoglyceric acid [2]: -0.7853 | 4-phosphopantothenate [2]: 0.02171 | 6-phospho-D-gluconate [2]: -0.4966 | FMN [2]: -0.1132 | IMP [2]: -0.008592 | Pyrophosphate [2]: -0.8081 | Sedoheptoluse bisphosphate [2]: -0.4298 | cyclic-AMP [2]: -0.3368 | glutathione disulfide [2]: -0.6284 | lactate [2]: 0.4073 | myo-inositol [2]: -0.09775 | nicotinate [2]: 1.038 | ornithine [2]: 0.535 | phosphoenolpyruvate [2]: 0.008692 | pyruvate [2]: 0.9693 | ribose-phosphate [2]: -0.5692 | sarcosine/alanine [2]: -0.2789 | sn-glycerol-3-phosphate [2]: -0.4175 | succinate/methylmalonic acid [2]: -0.1567 | uridine [2]: 0.8329 | xanthosine [2]: 0.2641 | EC50 (P. falciparum): 176 nM | candidate inhibitors of PfPMT activity (yeast functional assay) (PfPMT): candidate inhibitors of PfPMT activity

anti-Babesia and anti-Theileria hits, IC50 in words [1]: nanomolar IC50s
Compound: CC(C)(C)CC(C)(C)NCC(O)COc1ccc(Cl)cc1Cl (centres unmarked) [MMV396794]
